Laboratory results: the supplement of paper PMC8967900

Key:
Experiment in all cases: selective drug sensitivity score (sDSS, relative to normal bone marrow) (sDSS (score)); higher = more potent and effective on the cell line relative to normal bone marrow cells
Conditions in all cases: 72 h
KOPN-8 = test system: KOPN-8
ALL-SIL = test system: ALL-SIL
RCH-ACV = test system: RCH-ACV
MOLT-14 = test system: MOLT-14
KARPAS-45 = test system: KARPAS-45
ALL-PO = test system: ALL-PO
P30-OHKUBO = test system: P30-OHKUBO
PF-382 = test system: PF-382
COG-LL-355h = test system: COG-LL-355h
COG-LL-332h = test system: COG-LL-332h
MHH-CALL-3 = test system: MHH-CALL-3
COG-LL-402h = test system: COG-LL-402h
PEER = test system: PEER
SUP-B15 = test system: SUP-B15
KASUMI-2 = test system: KASUMI-2
COG-LL-319h = test system: COG-LL-319h
RPMI-8402 = test system: RPMI-8402
CCRF-CEM = test system: CCRF-CEM
COG-LL-317 = test system: COG-LL-317
REH = test system: REH
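Further: ALL cell lines in 384-well plates, five doses spanning 10,000-fold, each plate scaled between vehicle and 100 µmol/L benzalkonium chloride controls, sDSS an adapted area-under-curve metric.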

Structure (SMILES): O=c1[nH]c(=O)n([C@H]2C[C@H](O)[C@@H](CO)O2)cc1C(F)(F)F [Trifluridine] (top concentration 10000 nM)
- selective drug sensitivity score (KOPN-8): 17.4
- selective drug sensitivity score (ALL-SIL): 13.7
- selective drug sensitivity score (RCH-ACV): 15.2
- selective drug sensitivity score (MOLT-14): 15.4
- selective drug sensitivity score (KARPAS-45): -1.84
- selective drug sensitivity score (ALL-PO): 20
- selective drug sensitivity score (P30-OHKUBO): 11.9
- selective drug sensitivity score (PF-382): 4.16
- selective drug sensitivity score (COG-LL-355h): 0.06
- selective drug sensitivity score (COG-LL-332h): 7.46
- selective drug sensitivity score (MHH-CALL-3): 6.56
- selective drug sensitivity score (COG-LL-402h): 8.26
- selective drug sensitivity score (PEER): 7.66
- selective drug sensitivity score (SUP-B15): 15.4
- selective drug sensitivity score (KASUMI-2): 10.3
- selective drug sensitivity score (COG-LL-319h): 20.2
- selective drug sensitivity score (RPMI-8402): 15.5
- selective drug sensitivity score (CCRF-CEM): 14.2
- selective drug sensitivity score (COG-LL-317): 15.6
- selective drug sensitivity score (REH): 15.3

Structure (SMILES): CN(Cc1cnc2nc(N)nc(N)c2n1)c1ccc(C(=O)N[C@@H](CCC(=O)O)C(=O)O)cc1 [Methotrexate] (top concentration 5000 nM)
- selective drug sensitivity score (KOPN-8): -0.12
- selective drug sensitivity score (ALL-SIL): 15
- selective drug sensitivity score (RCH-ACV): 9.48
- selective drug sensitivity score (MOLT-14): 10.8
- selective drug sensitivity score (KARPAS-45): 11.5
- selective drug sensitivity score (ALL-PO): -0.12
- selective drug sensitivity score (P30-OHKUBO): -0.42
- selective drug sensitivity score (PF-382): 11.7
- selective drug sensitivity score (COG-LL-355h): -0.42
- selective drug sensitivity score (COG-LL-332h): 11.3
- selective drug sensitivity score (MHH-CALL-3): 10.4
- selective drug sensitivity score (COG-LL-402h): 2.38
- selective drug sensitivity score (PEER): 14.6
- selective drug sensitivity score (SUP-B15): -0.32
- selective drug sensitivity score (KASUMI-2): 0.28
- selective drug sensitivity score (COG-LL-319h): 20.1
- selective drug sensitivity score (RPMI-8402): 20.2
- selective drug sensitivity score (CCRF-CEM): 13
- selective drug sensitivity score (COG-LL-317): 9.18
- selective drug sensitivity score (REH): -0.22

Structure (SMILES): CN1CCN(C2CCC(n3cc(-c4ccc(Oc5ccccc5)cc4)c4c(N)ncnc43)CC2)CC1 (stereo not given) (top concentration 10000 nM)
- selective drug sensitivity score (KOPN-8): 5.02
- selective drug sensitivity score (ALL-SIL): 16.3
- selective drug sensitivity score (RCH-ACV): 22.7
- selective drug sensitivity score (MOLT-14): 3.42
- selective drug sensitivity score (KARPAS-45): 4.12
- selective drug sensitivity score (ALL-PO): 9.52
- selective drug sensitivity score (P30-OHKUBO): 8.52
- selective drug sensitivity score (PF-382): 7.12
- selective drug sensitivity score (COG-LL-355h): -0.08
- selective drug sensitivity score (COG-LL-332h): 6.42
- selective drug sensitivity score (MHH-CALL-3): 6.92
- selective drug sensitivity score (COG-LL-402h): 18.2
- selective drug sensitivity score (PEER): 7.02
- selective drug sensitivity score (SUP-B15): 16.1
- selective drug sensitivity score (KASUMI-2): -1.38
- selective drug sensitivity score (COG-LL-319h): 2.42
- selective drug sensitivity score (RPMI-8402): 3.52
- selective drug sensitivity score (CCRF-CEM): 1.12
- selective drug sensitivity score (COG-LL-317): 0.82
- selective drug sensitivity score (REH): 4.12

Structure (SMILES): CON(C)C(=O)N1N=C(c2cc(F)ccc2F)S[C@@]1(CCCN)c1ccccc1 [Filanesib] (top concentration 1000 nM)
- selective drug sensitivity score (KOPN-8): 9.8
- selective drug sensitivity score (ALL-SIL): 16.6
- selective drug sensitivity score (RCH-ACV): 16.3
- selective drug sensitivity score (MOLT-14): 22.9
- selective drug sensitivity score (KARPAS-45): 20.9
- selective drug sensitivity score (ALL-PO): 6.7
- selective drug sensitivity score (P30-OHKUBO): 9.9
- selective drug sensitivity score (PF-382): 12.5
- selective drug sensitivity score (COG-LL-355h): 1.7
- selective drug sensitivity score (COG-LL-332h): 21.1
- selective drug sensitivity score (MHH-CALL-3): 5.2
- selective drug sensitivity score (COG-LL-402h): 17.7
- selective drug sensitivity score (PEER): 19.2
- selective drug sensitivity score (SUP-B15): 21.6
- selective drug sensitivity score (KASUMI-2): 19.8
- selective drug sensitivity score (COG-LL-319h): 23.4
- selective drug sensitivity score (RPMI-8402): 18.9
- selective drug sensitivity score (CCRF-CEM): 16.2
- selective drug sensitivity score (COG-LL-317): 20.8
- selective drug sensitivity score (REH): 11.9

Structure (SMILES): CC[C@H](CC#N)OC(=O)N[C@@H](C)c1cccc(NC(=O)Nc2ccc(-c3cnco3)c(OC)c2)c1 [AVN944] (top concentration 10000 nM)
- selective drug sensitivity score (KOPN-8): 19.5
- selective drug sensitivity score (ALL-SIL): 6.64
- selective drug sensitivity score (RCH-ACV): 22
- selective drug sensitivity score (MOLT-14): 15.9
- selective drug sensitivity score (KARPAS-45): 8.84
- selective drug sensitivity score (ALL-PO): 5.94
- selective drug sensitivity score (P30-OHKUBO): 13.8
- selective drug sensitivity score (PF-382): 10.2
- selective drug sensitivity score (COG-LL-355h): -2.16
- selective drug sensitivity score (COG-LL-332h): 18
- selective drug sensitivity score (MHH-CALL-3): 11.1
- selective drug sensitivity score (COG-LL-402h): 9.64
- selective drug sensitivity score (PEER): 2.94
- selective drug sensitivity score (SUP-B15): 14.6
- selective drug sensitivity score (KASUMI-2): 14.4
- selective drug sensitivity score (COG-LL-319h): 12.3
- selective drug sensitivity score (RPMI-8402): 11.9
- selective drug sensitivity score (CCRF-CEM): 12.1
- selective drug sensitivity score (COG-LL-317): 20.6
- selective drug sensitivity score (REH): 16.8

Structure (SMILES): COc1cccc2c1C(=O)c1c(O)c3c(c(O)c1C2=O)C[C@@](O)(C(=O)CO)C[C@@H]3O[C@H]1C[C@H](N)[C@@H](O)[C@H](C)O1 [Epirubicin] (top concentration 1000 nM)
- selective drug sensitivity score (KOPN-8): 9.42
- selective drug sensitivity score (ALL-SIL): 0.42
- selective drug sensitivity score (RCH-ACV): 12.9
- selective drug sensitivity score (MOLT-14): 11.6
- selective drug sensitivity score (KARPAS-45): -0.28
- selective drug sensitivity score (ALL-PO): -1.78
- selective drug sensitivity score (P30-OHKUBO): 6.92
- selective drug sensitivity score (PF-382): 2.12
- selective drug sensitivity score (COG-LL-355h): 3.22
- selective drug sensitivity score (COG-LL-332h): 11.3
- selective drug sensitivity score (MHH-CALL-3): 14.8
- selective drug sensitivity score (COG-LL-402h): 14.9
- selective drug sensitivity score (PEER): -2.98
- selective drug sensitivity score (SUP-B15): 13.7
- selective drug sensitivity score (KASUMI-2): 7.72
- selective drug sensitivity score (COG-LL-319h): 16.3
- selective drug sensitivity score (RPMI-8402): 6.62
- selective drug sensitivity score (CCRF-CEM): 8.02
- selective drug sensitivity score (COG-LL-317): 17
- selective drug sensitivity score (REH): 10.5

Structure (SMILES): Cc1sc2c(c1C)C(c1ccc(Cl)cc1)=N[C@@H](CC(=O)NCCCCNC(=O)COc1cccc3c1C(=O)N(C1CCC(=O)NC1=O)C3=O)c1nnc(C)n1-2 (stereo not given in full) [dBET1] (top concentration 10000 nM)
- selective drug sensitivity score (KOPN-8): 7.82
- selective drug sensitivity score (ALL-SIL): -7.08
- selective drug sensitivity score (RCH-ACV): 0.22
- selective drug sensitivity score (MOLT-14): -1.48
- selective drug sensitivity score (KARPAS-45): -7.68
- selective drug sensitivity score (ALL-PO): -5.58
- selective drug sensitivity score (P30-OHKUBO): 2.82
- selective drug sensitivity score (PF-382): -8.28
- selective drug sensitivity score (COG-LL-355h): 6.22
- selective drug sensitivity score (COG-LL-332h): -8.98
- selective drug sensitivity score (MHH-CALL-3): -1.88
- selective drug sensitivity score (COG-LL-402h): 2.22
- selective drug sensitivity score (PEER): -4.48
- selective drug sensitivity score (SUP-B15): 0.52
- selective drug sensitivity score (KASUMI-2): -6.88
- selective drug sensitivity score (COG-LL-319h): 3.62
- selective drug sensitivity score (RPMI-8402): -6.68
- selective drug sensitivity score (CCRF-CEM): -3.68
- selective drug sensitivity score (COG-LL-317): 2.42
- selective drug sensitivity score (REH): -1.28

Structure (SMILES): CO[C@H]1C[C@@H]2CC[C@@H](C)[C@@](O)(O2)C(=O)C(=O)N2CCCC[C@H]2C(=O)O[C@H]([C@H](C)C[C@@H]2CC[C@@H](OCCO)[C@H](OC)C2)CC(=O)[C@H](C)/C=C(\C)[C@@H](O)[C@@H](OC)C(=O)[C@H](C)C[C@H](C)/C=C/C=C/C=C/1C [Everolimus] (top concentration 100 nM)
- selective drug sensitivity score (KOPN-8): 19.6
- selective drug sensitivity score (ALL-SIL): -0.2
- selective drug sensitivity score (RCH-ACV): 16
- selective drug sensitivity score (MOLT-14): -2.2
- selective drug sensitivity score (KARPAS-45): 0.2
- selective drug sensitivity score (ALL-PO): 8.9
- selective drug sensitivity score (P30-OHKUBO): 2
- selective drug sensitivity score (PF-382): 1.9
- selective drug sensitivity score (COG-LL-355h): 1.5
- selective drug sensitivity score (COG-LL-332h): 4.5
- selective drug sensitivity score (MHH-CALL-3): 3.4
- selective drug sensitivity score (COG-LL-402h): 1
- selective drug sensitivity score (PEER): 3.2
- selective drug sensitivity score (SUP-B15): 6.1
- selective drug sensitivity score (KASUMI-2): 11.8
- selective drug sensitivity score (COG-LL-319h): 10.7
- selective drug sensitivity score (RPMI-8402): -0.7
- selective drug sensitivity score (CCRF-CEM): 5.9
- selective drug sensitivity score (COG-LL-317): 2.4
- selective drug sensitivity score (REH): 4

Structure (SMILES): CC[C@@]1(O)C(=O)OCc2c1cc1n(c2=O)Cc2cc3c(CN(C)C)c(O)ccc3nc2-1 [Topotecan] (top concentration 10000 nM)
- selective drug sensitivity score (KOPN-8): 23.4
- selective drug sensitivity score (ALL-SIL): 24.9
- selective drug sensitivity score (RCH-ACV): 19.5
- selective drug sensitivity score (MOLT-14): 25.9
- selective drug sensitivity score (KARPAS-45): -0.22
- selective drug sensitivity score (ALL-PO): 17.9
- selective drug sensitivity score (P30-OHKUBO): 18.9
- selective drug sensitivity score (PF-382): 18.2
- selective drug sensitivity score (COG-LL-355h): 10.9
- selective drug sensitivity score (COG-LL-332h): 23.9
- selective drug sensitivity score (MHH-CALL-3): 12.2
- selective drug sensitivity score (COG-LL-402h): 17.7
- selective drug sensitivity score (PEER): 10.1
- selective drug sensitivity score (SUP-B15): 22.4
- selective drug sensitivity score (KASUMI-2): 14.7
- selective drug sensitivity score (COG-LL-319h): 18.6
- selective drug sensitivity score (RPMI-8402): 19.4
- selective drug sensitivity score (CCRF-CEM): 21.2
- selective drug sensitivity score (COG-LL-317): 28
- selective drug sensitivity score (REH): 22.2

Structure (SMILES): COc1ccc(-c2ccc3c(N4CCOC[C@@H]4C)nc(N4CCOC[C@@H]4C)nc3n2)cc1CO [AZD8055] (top concentration 10000 nM)
- selective drug sensitivity score (KOPN-8): 22.6
- selective drug sensitivity score (ALL-SIL): 6.78
- selective drug sensitivity score (RCH-ACV): 27.4
- selective drug sensitivity score (MOLT-14): 1.18
- selective drug sensitivity score (KARPAS-45): 4.78
- selective drug sensitivity score (ALL-PO): 10.6
- selective drug sensitivity score (P30-OHKUBO): 16.6
- selective drug sensitivity score (PF-382): 9.18
- selective drug sensitivity score (COG-LL-355h): 6.38
- selective drug sensitivity score (COG-LL-332h): 8.08
- selective drug sensitivity score (MHH-CALL-3): -0.52
- selective drug sensitivity score (COG-LL-402h): 9.88
- selective drug sensitivity score (PEER): 6.08
- selective drug sensitivity score (SUP-B15): 11.9
- selective drug sensitivity score (KASUMI-2): 14.6
- selective drug sensitivity score (COG-LL-319h): 5.28
- selective drug sensitivity score (RPMI-8402): 7.78
- selective drug sensitivity score (CCRF-CEM): 13.4
- selective drug sensitivity score (COG-LL-317): 4.78
- selective drug sensitivity score (REH): 12.8
